Legend:
NTF2L domain of G3BP1 [1] = experiment: SEC-MALS of peptide–NTF2L complexes; type: physicochemical, human; conditions: ~2 mg/mL in PBS pH 7.4, Superdex 200 Increase 10/300 GL; for M.W., molecular weight of the peptide–NTF2L complex: 0.5 mL/min, value given in figure
[2] = target: T1, NTF2L domain of G3BP1 (residues 1–138) (Homo sapiens, UniProt Q13283); experiment: Isothermal titration calorimetry (ITC) of peptides with NTF2L; type: binding; conditions: for n, molar ratio: 20°C
T1 construct: 6xHis tag with TEV protease cleavage site (N, cleaved yes); made in house; host or cells: Escherichia coli BL21 (DE3)

SARS-CoV-2 = conditions: cited from earlier work
NTF2L domain of G3BP1 [3] = experiment: Size-exclusion chromatography (SEC) of NTF2L incubated with peptide: high-order oligomer formation; type: binding, human; conditions: peptide mixed with NTF2L, incubated at 4°C overnight, Superdex 200 Increase 10/300 GL
endogenous G3BP1 = experiment: Co-immunoprecipitation with endogenous G3BP1 in HEK293T cells; type: cell-based; conditions: Co-IP, Flag magnetic beads, HEK293T cells lysed 36 h after transfection (3xFlag-mCherry constructs)
Protocol: HEK293T cells were seeded into a six-well cell culture plate and then transfected with the recombinant plasmids using TransIntro PEI Transfection Reagent (TransGen Biotech, FT401-01). Thirty-six hours after transfection, the cells were lysed with cell lysis buffer (Beyotime, P0013J) supplemented with proteinase inhibitor phenylmethylsulfonyl fluoride (Solarbio, P8340). Cell lysates were then centrifuged, and the supernatants were immunoprecipitated with Flag magnetic beads (LABLEAD, PFM025). Beads were washed three times with washing buffer (50 mM Tris-HCl, 500 mM NaCl, 0.1% Triton X-100, 1 mM EDTA, pH 7.5). Cell lysates or immunoprecipitants were analyzed with immunoblotting.
The proteins were then transferred to polyvinylidene fluoride membranes. Membranes were blocked for 4 h with 5% non-fat dry milk solution in Tris-buffered saline containing 0.1% Tween-20 (TBST) and then incubated with primary antibodies mouse anti-G3BP1 (Santa Cruz, sc-365338), mouse anti-Flag (Proteintech, 66008-4-Ig), and rabbit anti-β-actin (Proteintech, 81115-1-RR) overnight at 4°C. The membranes were washed with TBST and then incubated with the corresponding secondary antibodies. Proteins were visualized by SuperKine West Femto Maximum Sensitivity Substrate according to the manufacturer’s instruction (Abbkine, BMU102).

lung cancer cell = conditions: through targeting G3BP1; cited from earlier work

T1 sequence (Q13283 1-138): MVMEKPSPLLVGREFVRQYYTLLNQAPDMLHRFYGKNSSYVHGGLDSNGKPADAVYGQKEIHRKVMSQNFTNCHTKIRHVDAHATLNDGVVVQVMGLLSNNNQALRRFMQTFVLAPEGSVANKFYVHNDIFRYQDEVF

CC[C@H](C)[C@H](NC(=O)[C@H](CCC(=O)O)NC(=O)CNC(=O)[C@H](CC(=O)O)NC(=O)[C@H](CC(N)=O)NC(=O)[C@H](Cc1ccccc1)NC(=O)[C@H](CC(=O)O)NC(=O)CNC(=O)[C@H](Cc1ccccc1)NC(=O)[C@@H](NC(=O)[C@@H](NC(=O)[C@@H]1CCCN1C(=O)[C@H](Cc1ccccc1)NC(=O)[C@@H](NC(=O)[C@H](CCC(=O)O)NC(=O)[C@H](CO)NC(=O)CNC(=O)[C@H](CC(C)C)NC(=O)[C@@H]1CCCN1C(=O)CN)[C@@H](C)O)[C@@H](C)CC)[C@@H](C)O)C(=O)N[C@@H](CCC(=O)O)C(=O)N[C@@H](CO)C(=O)N[C@@H](CC(C)C)C(=O)N[C@@H](CO)C(=O)N[C@@H](CO)C(=O)N[C@@H](CCC(=O)O)C(=O)N[C@@H](CC(C)C)C(=O)N[C@@H](CC(C)C)C(=O)N[C@H](C(=O)N[C@@H](Cc1ccccc1)C(=O)NCC(=O)N[C@@H](CC(=O)O)C(=O)N[C@@H](Cc1ccccc1)C(=O)N[C@@H](CC(C)C)C(=O)N1CCC[C@H]1C(=O)NCC(=O)N[C@@H](C)C(=O)N[C@H](C(=O)N[C@@H](C)C(=O)N[C@@H](CC(=O)O)C(=O)N[C@@H](CC(C)C)C(=O)N[C@H](C(=O)N[C@@H](CC(=O)O)C(=O)N[C@@H](CO)C(=O)N[C@@H](CC(=O)O)C(=O)N[C@@H](Cc1c[nH]c2ccccc12)C(=O)N[C@@H](CO)C(=O)N[C@H](C(=O)N[C@@H](Cc1c[nH]cn1)C(=O)N[C@@H](Cc1c[nH]cn1)C(=O)N[C@@H](Cc1c[nH]cn1)C(=O)N[C@@H](Cc1c[nH]cn1)C(=O)N[C@@H](Cc1c[nH]cn1)C(=O)N[C@@H](Cc1c[nH]cn1)C(=O)O)[C@@H](C)O)[C@@H](C)O)C(C)C)[C@@H](C)O [CHIKV-43 mut]
M.W., molecular weight of the peptide–NTF2L complex (NTF2L domain of G3BP1 [1]): 58.7 ± 0.42 kDa
n, molar ratio ([2]; HEPES buffer pH 7.5, 200 µM peptide injected into 40 µM NTF2L): 0.6 ± 0.02
fold reduction of binding affinity with NTF2L ([2]; compared to that of CHIKV-43 with NTF2L): ~ 15 fold

Nc1ncn([C@H]2C[C@H](O)[C@@H](CO)O2)c(=O)n1 [decitabine]
inhibition of SARS-CoV-2 propagation (SARS-CoV-2): inhibit SARS-CoV-2 propagation

CC[C@H](C)[C@H](NC(=O)[C@H](CCC(=O)O)NC(=O)CNC(=O)[C@H](CC(=O)O)NC(=O)[C@H](CC(N)=O)NC(=O)[C@H](Cc1ccccc1)NC(=O)[C@H](CC(=O)O)NC(=O)CNC(=O)[C@H](Cc1ccccc1)NC(=O)[C@@H](NC(=O)[C@@H](NC(=O)[C@@H]1CCCN1C(=O)[C@H](Cc1ccccc1)NC(=O)[C@@H](NC(=O)[C@H](CCC(=O)O)NC(=O)[C@H](CO)NC(=O)CNC(=O)[C@H](CC(C)C)NC(=O)[C@@H]1CCCN1C(=O)CN)[C@@H](C)O)[C@@H](C)CC)[C@@H](C)O)C(=O)N[C@@H](CCC(=O)O)C(=O)N[C@@H](CO)C(=O)N[C@@H](CC(C)C)C(=O)N[C@@H](CO)C(=O)N[C@@H](CO)C(=O)N[C@@H](CCC(=O)O)C(=O)N[C@@H](CC(C)C)C(=O)N[C@@H](CC(C)C)C(=O)N[C@H](C(=O)N[C@@H](Cc1ccccc1)C(=O)NCC(=O)N[C@@H](CC(=O)O)C(=O)N[C@@H](Cc1ccccc1)C(=O)N[C@@H](CC(C)C)C(=O)N1CCC[C@H]1C(=O)NCC(=O)N[C@@H](CCC(=O)O)C(=O)N[C@H](C(=O)N[C@@H](CC(=O)O)C(=O)N[C@@H](CC(=O)O)C(=O)N[C@@H](CC(C)C)C(=O)N[C@H](C(=O)N[C@@H](CC(=O)O)C(=O)N[C@@H](CO)C(=O)N[C@@H](CC(=O)O)C(=O)N[C@@H](Cc1c[nH]c2ccccc12)C(=O)N[C@@H](CO)C(=O)N[C@H](C(=O)N[C@@H](Cc1c[nH]cn1)C(=O)N[C@@H](Cc1c[nH]cn1)C(=O)N[C@@H](Cc1c[nH]cn1)C(=O)N[C@@H](Cc1c[nH]cn1)C(=O)N[C@@H](Cc1c[nH]cn1)C(=O)N[C@@H](Cc1c[nH]cn1)C(=O)O)[C@@H](C)O)[C@@H](C)O)C(C)C)[C@@H](C)O [CHIKV-43]
M.W., molecular weight of the peptide–NTF2L complex (NTF2L domain of G3BP1 [1]): 314.1 ± 0.28 kDa
approximate M.W. of the peptide–NTF2L complex (NTF2L domain of G3BP1 [1]; rounded value of text): approximately 310 kDa
n, molar ratio ([2]; HEPES buffer pH 7.5, 50 µM peptide injected into 10 µM NTF2L): 0.6 ± 0.002
SEC peak / high-order oligomer formation with NTF2L (NTF2L domain of G3BP1 [3]): formed a stable peak
interaction with endogenous G3BP1 (endogenous G3BP1): obviously interact with G3BP1

Cc1ccc(NC(=O)c2ccc(CN3CCN(C)CC3)cc2)cc1Nc1nccc(-c2cccnc2)n1 [imatinib]
inhibition of SARS-CoV-2 propagation (SARS-CoV-2): inhibit SARS-CoV-2 propagation

O=C(O[C@@H]1Cc2c(O)cc(O)cc2O[C@@H]1c1cc(O)c(O)c(O)c1)c1cc(O)c(O)c(O)c1 [Epigallocatechin gallate]
effect on lung cancer cell growth (lung cancer cell): inhibits lung cancer cell growth

From article PMC12077208 (mBio, 2025)
